Experimental data taken from PubChem BioAssay (NCI).
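How tested: cells in 96-well plates exposed to compound for 48 hours at five concentrations. GI50 marks 50% less growth. TGI is the concentration that stops growth completely.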

How the values were obtained:
Experiment in all cases: growth of human tumour cells (NCI), 48 h
MDA-MB-435 = test system: MDA-MB-435
U251 CNS = test system: U251 CNS
MOLT-4 leukemia = test system: MOLT-4 leukemia
OVCAR-5 ovarian = test system: OVCAR-5 ovarian
COLO 205 colon = test system: COLO 205 colon
NCI-H460 lung = test system: NCI-H460 lung
LOX IMVI melanoma = test system: LOX IMVI melanoma
HCT-116 colon = test system: HCT-116 colon
RPMI-8226 leukemia = test system: RPMI-8226 leukemia
UACC-62 melanoma = test system: UACC-62 melanoma
HOP-62 NSCLC = test system: HOP-62 NSCLC
NCI-H226 lung = test system: NCI-H226 lung
CCRF-CEM leukemia = test system: CCRF-CEM leukemia
PC-3 prostate = test system: PC-3 prostate
SK-MEL-28 melanoma = test system: SK-MEL-28 melanoma
M14 melanoma = test system: M14 melanoma
HCC-2998 colon = test system: HCC-2998 colon
IGROV1 ovarian = test system: IGROV1 ovarian
NCI-H522 lung = test system: NCI-H522 lung
UO-31 renal = test system: UO-31 renal
K-562 leukemia = test system: K-562 leukemia
EKVX NSCLC = test system: EKVX NSCLC
MCF7 breast = test system: MCF7 breast
SF-539 CNS = test system: SF-539 CNS
SF-295 CNS = test system: SF-295 CNS
CAKI-1 renal = test system: CAKI-1 renal
SW-620 colon = test system: SW-620 colon
SK-OV-3 ovarian = test system: SK-OV-3 ovarian
OVCAR-8 ovarian = test system: OVCAR-8 ovarian
SNB-19 CNS = test system: SNB-19 CNS
ACHN renal = test system: ACHN renal
HL-60(TB) leukemia = test system: HL-60(TB) leukemia
TK-10 renal = test system: TK-10 renal
HT29 colon = test system: HT29 colon
UACC-257 melanoma = test system: UACC-257 melanoma
HS 578T breast = test system: HS 578T breast
OVCAR-4 ovarian = test system: OVCAR-4 ovarian
HOP-92 NSCLC = test system: HOP-92 NSCLC
T-47D breast = test system: T-47D breast
SK-MEL-5 melanoma = test system: SK-MEL-5 melanoma
KM12 colon = test system: KM12 colon
SN12C renal = test system: SN12C renal
MALME-3M melanoma = test system: MALME-3M melanoma
SR leukemia = test system: SR leukemia
MDA-MB-231 breast = test system: MDA-MB-231 breast
DU-145 prostate = test system: DU-145 prostate
NCI-H23 lung = test system: NCI-H23 lung
SK-MEL-2 melanoma = test system: SK-MEL-2 melanoma
OVCAR-3 ovarian = test system: OVCAR-3 ovarian
BT-549 breast = test system: BT-549 breast
HCT-15 colon = test system: HCT-15 colon
RXF 393 renal = test system: RXF 393 renal
A549 NSCLC = test system: A549 NSCLC
SNB-75 CNS = test system: SNB-75 CNS
SF-268 CNS = test system: SF-268 CNS
A498 renal = test system: A498 renal
NCI/ADR-RES ovarian = test system: NCI/ADR-RES ovarian

**Q.** Which results are given for `Cn1cc(-c2nn3cc(-c4ccncc4)nc3s2)c2cc(Cl)ccc21`?
**A.** GI50 (MDA-MB-435): 2.84 µM; TGI (MDA-MB-435): 8.7 µM; GI50 (U251 CNS): 9.15 µM; TGI (U251 CNS): 45.4 µM; GI50 (MOLT-4 leukemia): 2.1 µM; TGI (MOLT-4 leukemia): 5.23 µM; GI50 (OVCAR-5 ovarian): 1.86 µM; TGI (OVCAR-5 ovarian): 3.85 µM; GI50 (COLO 205 colon): 3.39 µM; TGI (COLO 205 colon): 9.2 µM; GI50 (NCI-H460 lung): 4.6 µM; TGI (NCI-H460 lung): 17.5 µM; GI50 (LOX IMVI melanoma): 2.64 µM; TGI (LOX IMVI melanoma): 9.26 µM; GI50 (HCT-116 colon): 1.76 µM; TGI (HCT-116 colon): 3.3 µM; GI50 (RPMI-8226 leukemia): 2.24 µM; TGI (RPMI-8226 leukemia): 6.24 µM; GI50 (UACC-62 melanoma): 11.4 µM; TGI (UACC-62 melanoma): 31.7 µM; GI50 (HOP-62 NSCLC): 4.4 µM; TGI (HOP-62 NSCLC): > 27.8 µM; GI50 (NCI-H226 lung): 4.86 µM; TGI (NCI-H226 lung): 26.1 µM; GI50 (CCRF-CEM leukemia): 2.06 µM; TGI (CCRF-CEM leukemia): 5.4 µM; GI50 (PC-3 prostate): 2.48 µM; TGI (PC-3 prostate): 7.82 µM; GI50 (SK-MEL-28 melanoma): 2 µM; TGI (SK-MEL-28 melanoma): 3.77 µM; GI50 (M14 melanoma): 1.6 µM; TGI (M14 melanoma): 3.14 µM; GI50 (HCC-2998 colon): 3.64 µM; TGI (HCC-2998 colon): 10.1 µM; GI50 (IGROV1 ovarian): 2.12 µM; TGI (IGROV1 ovarian): 17.2 µM; GI50 (NCI-H522 lung): 2.56 µM; TGI (NCI-H522 lung): 10.2 µM; GI50 (UO-31 renal): 4.03 µM; TGI (UO-31 renal): 22.6 µM; GI50 (K-562 leukemia): 2.15 µM; TGI (K-562 leukemia): 5.3 µM; GI50 (EKVX NSCLC): 2.3 µM; TGI (EKVX NSCLC): 8.54 µM; GI50 (MCF7 breast): 1.23 µM; TGI (MCF7 breast): 3.34 µM; GI50 (SF-539 CNS): 4.67 µM; TGI (SF-539 CNS): 10.2 µM; GI50 (SF-295 CNS): 2.98 µM; TGI (SF-295 CNS): 8.52 µM; GI50 (CAKI-1 renal): 8.31 µM; TGI (CAKI-1 renal): 28.6 µM; GI50 (SW-620 colon): 1.89 µM; TGI (SW-620 colon): 4.27 µM; GI50 (SK-OV-3 ovarian): 12.3 µM; TGI (SK-OV-3 ovarian): 30.6 µM; GI50 (OVCAR-8 ovarian): 2.36 µM; TGI (OVCAR-8 ovarian): 7.7 µM; GI50 (SNB-19 CNS): 7.98 µM; TGI (SNB-19 CNS): 32.7 µM; GI50 (ACHN renal): 4.78 µM; TGI (ACHN renal): 25.3 µM; GI50 (HL-60(TB) leukemia): 1.54 µM; TGI (HL-60(TB) leukemia): 3.26 µM; GI50 (TK-10 renal): 14.4 µM; TGI (TK-10 renal): 30.9 µM; GI50 (HT29 colon): 2.41 µM; TGI (HT29 colon): 7.31 µM; GI50 (UACC-257 melanoma): 8.58 µM; TGI (UACC-257 melanoma): 25.2 µM; GI50 (HS 578T breast): 4.73 µM; TGI (HS 578T breast): 27.2 µM; GI50 (OVCAR-4 ovarian): 5.03 µM; TGI (OVCAR-4 ovarian): 13.6 µM; GI50 (HOP-92 NSCLC): 1.61 µM; TGI (HOP-92 NSCLC): 5.3 µM; GI50 (T-47D breast): 3.3 µM; TGI (T-47D breast): 18.6 µM; GI50 (SK-MEL-5 melanoma): 3.02 µM; TGI (SK-MEL-5 melanoma): 8.25 µM; GI50 (KM12 colon): 12.5 µM; TGI (KM12 colon): 37.5 µM; GI50 (SN12C renal): 3.72 µM; TGI (SN12C renal): 11.2 µM; GI50 (MALME-3M melanoma): 3.16 µM; TGI (MALME-3M melanoma): 18.3 µM; GI50 (SR leukemia): 1.69 µM; TGI (SR leukemia): 4.61 µM; GI50 (MDA-MB-231 breast): 1.58 µM; TGI (MDA-MB-231 breast): 3.24 µM; GI50 (DU-145 prostate): 6.23 µM; TGI (DU-145 prostate): 17.4 µM; GI50 (NCI-H23 lung): 5.38 µM; TGI (NCI-H23 lung): 25.4 µM; GI50 (SK-MEL-2 melanoma): 5.41 µM; TGI (SK-MEL-2 melanoma): 14 µM; GI50 (OVCAR-3 ovarian): 5.8 µM; TGI (OVCAR-3 ovarian): 27.1 µM; GI50 (BT-549 breast): 3.39 µM; TGI (BT-549 breast): 13.3 µM; GI50 (HCT-15 colon): 1.83 µM; TGI (HCT-15 colon): 3.78 µM; GI50 (RXF 393 renal): 3.37 µM; TGI (RXF 393 renal): 9.85 µM; GI50 (A549 NSCLC): 11.2 µM; TGI (A549 NSCLC): 51.7 µM; GI50 (SNB-75 CNS): 6.42 µM; TGI (SNB-75 CNS): 24.2 µM; GI50 (SF-268 CNS): 6.32 µM; TGI (SF-268 CNS): 24.4 µM; GI50 (A498 renal): 9.38 µM; TGI (A498 renal): 23.7 µM; GI50 (NCI/ADR-RES ovarian): 2.7 µM; TGI (NCI/ADR-RES ovarian): 8.21 µM
